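Each compound was tested at five concentrations against cells in 96-well plates for 48 hours. The concentration for full growth arrest is given as TGI.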
How the values were obtained:
Assay in all cases: growth of human tumour cells (NCI), 48 h
[1] = test system: A498 renal
[2] = test system: ACHN renal
[3] = test system: CCRF-CEM leukemia
[4] = test system: COLO 205 colon
[5] = test system: DMS 114 small cell lung
[6] = test system: HCC-2998 colon
[7] = test system: HL-60(TB) leukemia
[8] = test system: HOP-62 NSCLC
[9] = test system: HOP-92 NSCLC
[10] = test system: HT29 colon
[11] = test system: IGROV1 ovarian
[12] = test system: K-562 leukemia
[13] = test system: KM12 colon
[14] = test system: KM20L2 colon
[15] = test system: LXFL 529 NSCLC
[16] = test system: M14 melanoma
[17] = test system: M19-MEL melanoma
[18] = test system: MALME-3M melanoma
[19] = test system: MOLT-4 leukemia
[20] = test system: NCI-H23 lung
[21] = test system: NCI-H460 lung
[22] = test system: NCI-H522 lung
[23] = test system: OVCAR-3 ovarian
[24] = test system: OVCAR-4 ovarian
[25] = test system: OVCAR-5 ovarian
[26] = test system: RPMI-8226 leukemia
[27] = test system: SF-268 CNS
[28] = test system: SF-295 CNS
[29] = test system: SF-539 CNS
[30] = test system: SK-MEL-2 melanoma
[31] = test system: SK-MEL-28 melanoma
[32] = test system: SK-OV-3 ovarian
[33] = test system: SNB-75 CNS
[34] = test system: SNB-78 CNS
[35] = test system: SR leukemia
[36] = test system: U251 CNS
[37] = test system: UACC-257 melanoma
[38] = test system: UACC-62 melanoma
[39] = test system: UO-31 renal
[40] = test system: 786-0 renal
[41] = test system: A549 NSCLC
[42] = test system: BT-549 breast
[43] = test system: CAKI-1 renal
[44] = test system: DU-145 prostate
[45] = test system: EKVX NSCLC
[46] = test system: HCT-116 colon
[47] = test system: HCT-15 colon
[48] = test system: HS 578T breast
[49] = test system: LOX IMVI melanoma
[50] = test system: MCF7 breast
[51] = test system: MDA-MB-231 breast
[52] = test system: MDA-MB-435
[53] = test system: MDA-N
[54] = test system: NCI-H226 lung
[55] = test system: NCI/ADR-RES ovarian
[56] = test system: OVCAR-8 ovarian
[57] = test system: PC-3 prostate
[58] = test system: RXF 393 renal
[59] = test system: SK-MEL-5 melanoma
[60] = test system: SN12C renal
[61] = test system: SNB-19 CNS
[62] = test system: SW-620 colon
[63] = test system: T-47D breast
[64] = test system: TK-10 renal

For `CCN(CC)CCCC(C)Nc1cc(-c2ccccc2)nc2cc(OC)ccc12` (stereo not drawn), the TGI [1] was 14 µM, the TGI [2] was 29.8 µM and the TGI [3] was 11.4 µM. For the same compound, the TGI [4] was 13.4 µM, the TGI [5] was 21.8 µM and the TGI [6] was 2.41 µM. It also gave a TGI [7] of 7.04 µM, a TGI [8] of 19.4 µM and a TGI [9] of 11.1 µM. For the same compound, the TGI [10] was 4.83 µM, the TGI [11] was 41.9 µM and the TGI [12] was 5.7 µM. The TGI [13] was 22.3 µM, the TGI [14] was 7.89 µM and the TGI [15] was 19.9 µM. It also gave a TGI [16] of 3.52 µM, a TGI [17] of 27.5 µM and a TGI [18] of 22.4 µM. It also gave a TGI [19] of 8.24 µM, a TGI [20] of 32.1 µM and a TGI [21] of 14.7 µM. The TGI [22] was 19.9 µM, the TGI [23] was 34.5 µM and the TGI [24] was 18.7 µM. It also gave a TGI [25] of 7.97 µM, a TGI [26] of 5.77 µM and a TGI [27] of 32.9 µM. For the same compound, the TGI [28] was 21.1 µM, the TGI [29] was 17.7 µM and the TGI [30] was 26.3 µM. The TGI [31] was 20.5 µM, the TGI [32] was 37.5 µM and the TGI [33] was 25.9 µM. The TGI [34] was 18 µM, the TGI [35] was 12.1 µM and the TGI [36] was 15.8 µM. For the same compound, the TGI [37] was 35.6 µM, the TGI [38] was 36.6 µM and the TGI [39] was 9.22 µM.

`Cc1cc(=O)oc2cc(OC(=O)N(CCCl)CCCl)ccc12` showed a TGI [40] greater than 100 µM, a TGI [1] greater than 100 µM and a TGI [41] greater than 100 µM. The TGI [2] was greater than 100 µM, the TGI [42] was greater than 100 µM and the TGI [43] was greater than 100 µM. The TGI [3] was greater than 100 µM, the TGI [4] was greater than 100 µM and the TGI [44] was greater than 100 µM. For the same compound, the TGI [45] was greater than 100 µM, the TGI [6] was greater than 100 µM and the TGI [46] was greater than 100 µM. It also gave a TGI [47] greater than 100 µM, a TGI [7] greater than 100 µM and a TGI [8] greater than 100 µM. The TGI [9] was 95.9 µM, the TGI [48] was greater than 100 µM and the TGI [10] was greater than 100 µM. It also gave a TGI [11] greater than 100 µM, a TGI [12] greater than 100 µM and a TGI [13] greater than 100 µM. For the same compound, the TGI [49] was greater than 100 µM, the TGI [16] was greater than 100 µM and the TGI [18] was greater than 100 µM. It also gave a TGI [50] greater than 100 µM, a TGI [51] greater than 100 µM and a TGI [52] greater than 100 µM. It also gave a TGI [53] greater than 100 µM, a TGI [19] greater than 100 µM and a TGI [54] greater than 100 µM. The TGI [20] was greater than 100 µM, the TGI [21] was greater than 100 µM and the TGI [22] was greater than 100 µM. It also gave a TGI [55] greater than 100 µM, a TGI [23] greater than 100 µM and a TGI [24] greater than 100 µM. The TGI [25] was greater than 100 µM, the TGI [56] was greater than 100 µM and the TGI [57] was greater than 100 µM. For the same compound, the TGI [26] was greater than 100 µM, the TGI [58] was greater than 100 µM and the TGI [27] was greater than 100 µM. It also gave a TGI [28] greater than 100 µM, a TGI [29] greater than 100 µM and a TGI [30] greater than 100 µM. The TGI [31] was greater than 100 µM, the TGI [59] was greater than 100 µM and the TGI [32] was greater than 100 µM. It also gave a TGI [60] greater than 100 µM, a TGI [61] greater than 100 µM and a TGI [33] greater than 100 µM. The TGI [35] was greater than 100 µM, the TGI [62] was greater than 100 µM and the TGI [63] was greater than 100 µM. It also gave a TGI [64] greater than 100 µM, a TGI [36] greater than 100 µM and a TGI [37] greater than 100 µM. For the same compound, the TGI [38] was greater than 100 µM and the TGI [39] was greater than 100 µM.

— PubChem BioAssay (NCI)
